The subject of assay [1] is PEG-3. The experiment in a line: inhibition of PEG-3 promoter-driven reporter – cell-based, HeLa, luciferase, CREF/GAPDH counter-screen panel, dose response (AID 624167). The conditions noted are these: HeLa PEG-Prom luciferase reporter, overnight, CREF/GAPDH counter-screens.
Another assay relates to Rat fibroblasts (CREF). Described as above. The note with it: CREF/GAPDH counter-screens.
Assay in assay [2]: as above
The conditions noted are these: CREF/GAPDH counter-screens; GAPDH; mean of runs.

The subject of the next assay is GAPDH. Described as above. The note with it: CREF/GAPDH counter-screens.
The target in assay [3] is PEG-3 (UniProt Q6IN02). The description is as above. The note with it: HeLa PEG-Prom luciferase reporter, overnight, CREF/GAPDH counter-screens, mean of runs.
PEG-3 (UniProt Q6IN02), sequence (Q6IN02 whole entry, looked up): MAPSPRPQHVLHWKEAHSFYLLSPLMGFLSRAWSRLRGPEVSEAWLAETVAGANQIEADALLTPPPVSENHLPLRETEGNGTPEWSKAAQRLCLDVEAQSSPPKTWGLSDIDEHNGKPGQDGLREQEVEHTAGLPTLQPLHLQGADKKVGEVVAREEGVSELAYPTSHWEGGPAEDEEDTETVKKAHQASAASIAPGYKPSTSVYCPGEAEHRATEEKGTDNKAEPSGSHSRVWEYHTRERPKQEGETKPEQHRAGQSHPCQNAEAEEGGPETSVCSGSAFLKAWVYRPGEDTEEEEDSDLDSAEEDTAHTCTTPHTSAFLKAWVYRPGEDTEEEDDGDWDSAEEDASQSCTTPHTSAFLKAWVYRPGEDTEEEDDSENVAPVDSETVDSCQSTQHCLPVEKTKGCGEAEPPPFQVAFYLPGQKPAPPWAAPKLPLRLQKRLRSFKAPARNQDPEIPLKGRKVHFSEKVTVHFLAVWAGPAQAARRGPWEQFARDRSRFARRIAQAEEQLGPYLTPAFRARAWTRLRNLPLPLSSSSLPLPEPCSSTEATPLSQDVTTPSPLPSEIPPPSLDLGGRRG
Setting [4] is: run 1, dose range 1, individual replicate IC50 per panel.
The mark [5] stands for this setting: run 2, dose range 1, individual replicate IC50 per panel.

The results in this text go back to PubChem BioAssay AID624167 (Sanford-Burnham Center for Chemical Genomics, 2012).

The structures appear in SMILES notation. pIC50: −log10 of the molar value. Calls of active or inactive are those of the source.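 The calls were made as follows: active = mean IC50 for reducing PEG3 promoter reporter signal at or below a set limit, with IC50 above the limit in both counter screens; inactive = the rest, including counter screen hits.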

As for `COc1cccc(OC)c1C(=O)Nc1cc(C)nn1-c1nc2ccccc2[nH]1`, the pIC50 was 5.68 in the assay with PEG-3 [1] (setting [4]); 5.38 with PEG-3 [1] (setting [5]); under 4.00 with Rat fibroblasts (CREF) (setting [4]); under 4.00 with Rat fibroblasts (CREF) (setting [5]); under 4.00 with GAPDH (setting [4]); under 4.00 in the assay with GAPDH (setting [5]). The pIC50 at PEG-3 [3] is 5.51. Moreover, the IC50 (in the assay with Rat fibroblasts (CREF) (mean of runs); in assay [2]) was > 100 µM (inactive) throughout.
For `CN(O)C(=S)c1ccccc1`, the pIC50 with PEG-3 [1] (setting [4]) was 4.99; in the assay on PEG-3 [1] (setting [5]), 4.37; with Rat fibroblasts (CREF) (setting [4]), under 4.00; with Rat fibroblasts (CREF) (setting [5]) it was under 4.00; with GAPDH (setting [4]) it was under 4.00; in the assay with GAPDH (setting [5]), under 4.00. The IC50 (in the assay with Rat fibroblasts (CREF) (mean of runs); in assay [2]) was > 100 µM (inactive) each time. The IC50 entry on PEG-3 [3] is “inactive”.
Consider `COc1ccc(C(NC(C)=O)c2ccc3cccnc3c2O)c(OC)c1` (centres undefined), for which the pIC50 is 5.43 in the assay with PEG-3 [1] (setting [4]); 5.16 in the assay with PEG-3 [1] (setting [5]); 5.45 in the assay with Rat fibroblasts (CREF) (setting [4]); under 4.00 in the assay with Rat fibroblasts (CREF) (setting [5]); under 4.00 in the assay with GAPDH (setting [4]); under 4.00 in the assay on GAPDH (setting [5]). Further, the pIC50 on PEG-3 [3] is 5.27. Also, the figures for the IC50 (in the assay with Rat fibroblasts (CREF) (mean of runs); in assay [2]) were 51.8 µM (inactive) and > 100 µM (inactive), respectively.
`O=[N+]([O-])c1ccc(S(=O)(=O)c2ccccc2)nc1`: the pIC50 is 5.02 in the assay on PEG-3 [1] (setting [4]); 5.07 in the assay with PEG-3 [1] (setting [5]); 5.05 with Rat fibroblasts (CREF) (setting [4]); under 4.00 in the assay with Rat fibroblasts (CREF) (setting [5]); 4.47 in the assay with GAPDH (setting [4]); 4.54 in the assay on GAPDH (setting [5]). Further, the pIC50 on PEG-3 [3] is 5.05. Further, the IC50 with Rat fibroblasts (CREF) (mean of runs) was 54.4 µM (inactive). In addition, in assay [2], the IC50 entry is “inactive”.
In the case of `CCOc1cccc(/C=N/NC(=S)Nc2cc(S(=O)(=O)N3CCOCC3)ccc2N2CCOCC2)c1O`, the pIC50 is 5.04 with PEG-3 [1] (setting [4]); 4.59 with PEG-3 [1] (setting [5]); under 4.00 with Rat fibroblasts (CREF) (setting [4]); 4.14 in the assay on Rat fibroblasts (CREF) (setting [5]); under 4.00 with GAPDH (setting [4]); under 4.00 in the assay with GAPDH (setting [5]). For the same compound, the pIC50 on PEG-3 [3] was 4.76. The IC50 in the assay with Rat fibroblasts (CREF) (mean of runs) is 72.8 µM (inactive); in assay [2] it was > 100 µM (inactive).
Turning to `Cc1cccc(OCC(=O)NCC(=O)N/N=C/c2cc(Br)cc(Br)c2O)c1`, the pIC50 in the assay on PEG-3 [1] (setting [4]) was 5.00; with PEG-3 [1] (setting [5]) it was 5.23; with Rat fibroblasts (CREF) (mean of runs) it was 4.33; with Rat fibroblasts (CREF) (setting [4]) it was 4.37; in the assay on Rat fibroblasts (CREF) (setting [5]), 4.28; in the assay on GAPDH (setting [4]) it was under 4.00. In addition, the figures for the pIC50 with GAPDH (setting [5]) and on PEG-3 [3] were under 4.00 and 5.10, respectively. The IC50 in assay [2] was > 100 µM (inactive).
For the compound `Cc1ccc(NC(=S)NC(=O)c2ccc(F)cc2)cc1S(=O)(=O)Nc1ccccc1Cl`, the pIC50 in the assay on PEG-3 [1] (setting [4]) is 5.38; with PEG-3 [1] (setting [5]), 5.45; in the assay with Rat fibroblasts (CREF) (setting [4]), under 4.00; in the assay with Rat fibroblasts (CREF) (setting [5]), 5.87; in the assay on GAPDH (setting [4]), 4.35; with GAPDH (setting [5]) it was 4.39. In addition, the pIC50 at PEG-3 [3] is 5.41. The IC50 with Rat fibroblasts (CREF) (mean of runs) was 50.7 µM (inactive). Besides, the IC50 entry in assay [2] is “inactive”.
Regarding `CCCC(=O)NC(c1ccccc1)c1ccc2cccnc2c1O` (centres undefined), the pIC50 in the assay on PEG-3 [1] (setting [4]) was 5.52; in the assay with PEG-3 [1] (setting [5]), 5.72; in the assay with Rat fibroblasts (CREF) (mean of runs) it was 4.88; with Rat fibroblasts (CREF) (setting [4]), 6.23; with Rat fibroblasts (CREF) (setting [5]), 4.59; in the assay on GAPDH (setting [4]) it was under 4.00. Besides, the results for the pIC50 in the assay on GAPDH (setting [5]) and at PEG-3 [3] were under 4.00 and 5.61, respectively. In assay [2], the IC50 is > 100 µM (inactive).
Take `C=CCn1c(COc2ccccc2)nnc1SC(C)C(=O)N/N=C/c1cc(Cl)ccc1O` (centres undefined): the pIC50 is 5.29 in the assay on PEG-3 [1] (setting [4]); 5.46 in the assay with PEG-3 [1] (setting [5]); under 4.00 in the assay with Rat fibroblasts (CREF) (setting [4]); under 4.00 in the assay on Rat fibroblasts (CREF) (setting [5]); under 4.00 in the assay on GAPDH (setting [4]); under 4.00 in the assay with GAPDH (setting [5]). In addition, the pIC50 at PEG-3 [3] was 5.37. Also, the IC50 (in the assay on Rat fibroblasts (CREF) (mean of runs); in assay [2]) was > 100 µM (inactive) in each case.
As to `CCC(=O)NC(c1ccc(C)cc1)c1ccc2cccnc2c1O` (centres undefined), the pIC50 was 5.88 with PEG-3 [1] (setting [4]); under 4.00 in the assay on PEG-3 [1] (setting [5]); under 4.00 in the assay with Rat fibroblasts (CREF) (setting [4]); under 4.00 in the assay with Rat fibroblasts (CREF) (setting [5]); 4.33 with GAPDH (setting [4]); under 4.00 in the assay with GAPDH (setting [5]). Moreover, the IC50 with Rat fibroblasts (CREF) (mean of runs) is > 100 µM (inactive). Moreover, the IC50 result (in assay [2]; on PEG-3 [3]) was “inactive” in each case.
As to `COc1cc(CNCCCN2CCOCC2)cc(Br)c1OCc1ccc(Cl)cc1`, the negative-log IC50 (pIC50) in the assay on PEG-3 [1] (setting [4]) is 5.02; in the assay with PEG-3 [1] (setting [5]), 5.05; in the assay with Rat fibroblasts (CREF) (mean of runs), 4.84; in the assay with Rat fibroblasts (CREF) (setting [4]), under 4.10; with Rat fibroblasts (CREF) (setting [5]), 4.84; in assay [2], 4.91. For the same compound, the negative-log IC50 (pIC50) in the assay on GAPDH (setting [4]) is 4.82; in the assay on GAPDH (setting [5]), 5.03; at PEG-3 [3], 5.03.
